Measured values published in ChEMBL document CHEMBL4406892 (Bioorg Med Chem Lett, 2019).
Activity calls are given as the source filed them. The calls are words filed in the database; no cut-off is given here.

Tests used:
[1] = molecular target: Urokinase-type plasminogen activator (Homo sapiens, UniProt P00749)
Description: Inhibition of human kidney uPA using fluorogenic Z-Pyr-Gly-Arg-MCA as substrate measured after 15 mins by fluorometric analysis

Trypsin = Trypsin (Homo sapiens, UniProt P07477+P07478+P35030); test: Inhibition of trypsin (unknown origin) using chromogenic H-D-Ile-[…]-L-arginine-p-nitroaniline as substrate; type: protein assay
Rattus norvegicus [2] = test: Diuretic activity in Sprague-Dawley rat model of acetazolamide-induced diuresis assessed as increase in urine volume at 1.5 mg/kg, ip pretreated with acetazolamide followed by compound treatment measured after 6 hrs; type: ADME, organism-based; settings: in vivo
Rattus norvegicus [3] = test: Diuretic activity in Sprague-Dawley rat model of acetazolamide-induced diuresis assessed as increase in sodium excretion at 1.5 mg/kg, ip pretreated with acetazolamide followed by compound treatment measured after 6 hrs; type: ADME, organism-based; settings: in vivo
Rattus norvegicus [4] = test: Antikaliuretic activity in Sprague-Dawley rat model of acetazolamide-induced diuresis assessed as decrease in potassium secretion at 1.5 mg/kg, ip pretreated with acetazolamide followed by compound treatment measured after 6 hrs; type: ADME, organism-based; settings: in vivo
Plasminogen = Plasminogen (Homo sapiens, UniProt P00747); test: Inhibition of plasmin (unknown origin) using chromogenic H-D-Ile-[…]-L-arginine-p-nitroaniline as substrate
Prothrombin = Prothrombin (Homo sapiens, UniProt P00734); test: Inhibition of thrombin (unknown origin) using chromogenic H-D-Ile-[…]-L-arginine-p-nitroaniline as substrate
Coagulation factor X = Coagulation factor X (Homo sapiens, UniProt P00742); test: Inhibition of factor Xa (unknown origin)
Coagulation factor XI = Coagulation factor XI (Homo sapiens, UniProt P03951); test: Inhibition of factor 11a (unknown origin) using chromogenic L-pyroGlu-L-Pro-L-Arg-p-nitroaniline as substrate
[5] = molecular target: Vitamin K-dependent protein C (Homo sapiens, UniProt P04070); test: Inhibition of activated protein C (unknown origin) using chromogenic L-pyroGlu-L-Pro-L-Arg-p-nitroaniline as substrate
HT-1080 = test: Antimetastatic activity against luciferase-tagged human HT1080 cells xenografted in NSG mouse assessed as reduction in lung burden at 7.5 mg/kg/day, ip for 21 days by luciferase assay; type: functional, organism-based
Plasma kallikrein = Plasma kallikrein (Homo sapiens, UniProt P03952)
Description: Inhibition of human plasma kallikrein using chromogenic L-pyroGlu-L-Pro-L-Arg-p-nitroaniline as substrate

[6] = molecular target: Tissue-type plasminogen activator (Homo sapiens, UniProt P00750)
Chain of Tissue-type plasminogen activator (P00750 whole entry): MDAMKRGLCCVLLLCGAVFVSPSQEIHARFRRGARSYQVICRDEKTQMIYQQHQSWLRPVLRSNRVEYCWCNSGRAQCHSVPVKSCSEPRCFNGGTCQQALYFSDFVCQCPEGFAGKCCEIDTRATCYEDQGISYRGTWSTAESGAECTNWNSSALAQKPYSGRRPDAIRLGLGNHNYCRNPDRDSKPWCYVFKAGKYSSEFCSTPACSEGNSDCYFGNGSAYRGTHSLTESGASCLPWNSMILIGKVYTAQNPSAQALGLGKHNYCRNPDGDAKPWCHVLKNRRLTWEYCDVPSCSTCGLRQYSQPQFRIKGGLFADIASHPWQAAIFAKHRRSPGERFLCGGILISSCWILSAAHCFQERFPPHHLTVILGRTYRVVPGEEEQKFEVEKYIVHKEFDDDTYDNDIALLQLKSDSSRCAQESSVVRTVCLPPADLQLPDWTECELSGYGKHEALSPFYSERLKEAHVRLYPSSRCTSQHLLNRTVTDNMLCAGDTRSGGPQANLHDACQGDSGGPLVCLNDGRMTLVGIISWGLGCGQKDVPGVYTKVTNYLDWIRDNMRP
Description: Inhibition of tissue-type plasminogen activator (unknown origin) using chromogenic H-D-Ile-L-propyl-L-arginine-p-nitroaniline as substrate

Chain of Coagulation factor XI (P03951 19-387 limits assumed): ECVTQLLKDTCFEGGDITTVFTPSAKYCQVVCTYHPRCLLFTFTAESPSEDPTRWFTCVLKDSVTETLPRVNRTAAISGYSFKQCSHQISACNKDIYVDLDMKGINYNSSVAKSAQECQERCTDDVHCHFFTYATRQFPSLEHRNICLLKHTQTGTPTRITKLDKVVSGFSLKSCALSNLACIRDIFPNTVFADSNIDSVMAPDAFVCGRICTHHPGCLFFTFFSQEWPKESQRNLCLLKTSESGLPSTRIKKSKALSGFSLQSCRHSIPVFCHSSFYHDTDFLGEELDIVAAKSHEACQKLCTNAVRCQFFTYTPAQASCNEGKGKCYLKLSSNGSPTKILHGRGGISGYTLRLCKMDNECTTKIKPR
Chain of Coagulation factor XI (P03951 388-625 limits assumed): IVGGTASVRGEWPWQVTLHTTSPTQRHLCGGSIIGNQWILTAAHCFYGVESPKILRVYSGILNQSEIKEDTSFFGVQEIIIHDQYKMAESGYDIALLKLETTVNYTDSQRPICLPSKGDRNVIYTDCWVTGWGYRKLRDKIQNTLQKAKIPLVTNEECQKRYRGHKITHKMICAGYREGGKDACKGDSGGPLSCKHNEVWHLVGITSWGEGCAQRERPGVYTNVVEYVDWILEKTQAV
Chain of Plasma kallikrein (P03952 20-390 limits assumed): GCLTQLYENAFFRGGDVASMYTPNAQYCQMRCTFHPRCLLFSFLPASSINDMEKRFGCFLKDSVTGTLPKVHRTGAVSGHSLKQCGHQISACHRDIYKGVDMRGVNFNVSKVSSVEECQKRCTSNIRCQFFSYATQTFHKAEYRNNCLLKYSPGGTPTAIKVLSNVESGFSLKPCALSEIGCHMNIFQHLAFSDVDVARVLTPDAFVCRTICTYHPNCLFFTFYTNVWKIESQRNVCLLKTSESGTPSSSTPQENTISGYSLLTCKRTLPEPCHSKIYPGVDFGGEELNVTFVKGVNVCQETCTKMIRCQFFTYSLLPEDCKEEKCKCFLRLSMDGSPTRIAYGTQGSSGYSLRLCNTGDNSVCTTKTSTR
Chain of Plasma kallikrein (P03952 391-638 limits assumed): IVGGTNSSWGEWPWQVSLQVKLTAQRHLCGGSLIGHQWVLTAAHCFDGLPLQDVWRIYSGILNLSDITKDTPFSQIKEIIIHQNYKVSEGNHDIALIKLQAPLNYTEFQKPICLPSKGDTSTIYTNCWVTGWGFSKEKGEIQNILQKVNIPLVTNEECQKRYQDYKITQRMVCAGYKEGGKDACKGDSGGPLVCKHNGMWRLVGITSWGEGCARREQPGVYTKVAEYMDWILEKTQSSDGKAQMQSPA
Chain of Vitamin K-dependent protein C (P04070 43-197 limits assumed): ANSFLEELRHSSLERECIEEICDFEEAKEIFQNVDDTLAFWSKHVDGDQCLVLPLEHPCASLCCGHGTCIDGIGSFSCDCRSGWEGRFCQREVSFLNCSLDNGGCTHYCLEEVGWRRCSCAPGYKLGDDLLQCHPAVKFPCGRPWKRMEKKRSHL
Chain of Vitamin K-dependent protein C (P04070 212-461 limits assumed): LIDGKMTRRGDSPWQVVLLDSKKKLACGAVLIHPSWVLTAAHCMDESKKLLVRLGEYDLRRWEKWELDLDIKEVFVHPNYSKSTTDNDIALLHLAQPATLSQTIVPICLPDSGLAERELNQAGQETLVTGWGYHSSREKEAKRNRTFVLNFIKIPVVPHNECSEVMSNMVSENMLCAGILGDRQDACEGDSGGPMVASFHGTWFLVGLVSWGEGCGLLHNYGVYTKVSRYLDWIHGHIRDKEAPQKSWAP
Chain of Plasminogen (P00747 97-580 limits assumed): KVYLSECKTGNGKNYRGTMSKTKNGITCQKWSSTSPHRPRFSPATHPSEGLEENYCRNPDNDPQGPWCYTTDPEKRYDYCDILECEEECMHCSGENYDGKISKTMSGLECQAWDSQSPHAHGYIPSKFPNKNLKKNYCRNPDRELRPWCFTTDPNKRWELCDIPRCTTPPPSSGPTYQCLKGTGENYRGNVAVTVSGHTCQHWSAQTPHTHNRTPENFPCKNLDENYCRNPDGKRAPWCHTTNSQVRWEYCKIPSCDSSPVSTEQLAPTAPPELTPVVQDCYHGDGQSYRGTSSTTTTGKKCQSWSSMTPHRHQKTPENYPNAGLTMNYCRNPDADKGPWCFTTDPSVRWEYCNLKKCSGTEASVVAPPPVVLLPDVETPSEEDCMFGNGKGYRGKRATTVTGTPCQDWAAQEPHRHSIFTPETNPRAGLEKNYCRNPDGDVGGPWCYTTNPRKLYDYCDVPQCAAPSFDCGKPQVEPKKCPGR
Chain of Plasminogen (P00747 581-810 limits assumed): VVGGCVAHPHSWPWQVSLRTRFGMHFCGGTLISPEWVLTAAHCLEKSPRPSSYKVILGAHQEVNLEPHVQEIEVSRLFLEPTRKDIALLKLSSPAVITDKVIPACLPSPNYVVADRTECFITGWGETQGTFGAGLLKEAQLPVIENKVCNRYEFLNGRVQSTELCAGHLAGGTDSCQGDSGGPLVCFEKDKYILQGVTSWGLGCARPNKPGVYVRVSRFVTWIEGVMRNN
Chain of Coagulation factor X (P00742 41-179 limits assumed): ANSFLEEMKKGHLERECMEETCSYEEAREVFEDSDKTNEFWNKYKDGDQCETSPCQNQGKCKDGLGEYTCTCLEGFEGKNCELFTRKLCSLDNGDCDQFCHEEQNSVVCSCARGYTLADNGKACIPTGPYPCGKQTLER
Chain of Coagulation factor X (P00742 235-488 limits assumed): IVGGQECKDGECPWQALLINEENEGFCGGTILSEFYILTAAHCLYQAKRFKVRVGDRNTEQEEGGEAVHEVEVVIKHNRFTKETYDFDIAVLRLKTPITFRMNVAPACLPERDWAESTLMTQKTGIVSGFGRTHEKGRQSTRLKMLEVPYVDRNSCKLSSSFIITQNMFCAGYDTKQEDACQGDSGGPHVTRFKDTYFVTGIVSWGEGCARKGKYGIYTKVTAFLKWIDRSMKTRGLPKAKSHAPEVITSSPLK

Ki [1]	SMILES	also measured
482 nM	Cn1cc(-c2nc(C(=O)NC(=N)N)c(N)nc2N)cn1	–
3140 nM	N=C(N)NC(=O)c1nc(-c2ccc(C(F)(F)F)cc2)c(N)nc1N	–
2500 nM	N=C(N)NC(=O)c1nc(-c2ccccc2)c(N)nc1N	–
499 nM	N=C(N)NC(=O)c1nc(-c2ccoc2)c(N)nc1N	–
776 nM	N=C(N)NC(=O)c1nc(-c2ccco2)c(N)nc1N	–
587 nM	N=C(N)NC(=O)c1nc(-c2cc3cc(F)ccc3o2)c(N)nc1N	–
642 nM	Cc1ccc2oc(-c3nc(C(=O)NC(=N)N)c(N)nc3N)cc2c1	–
350 nM	N=C(N)NC(=O)c1nc(-c2ccc3occc3c2)c(N)nc1N	–
2410 nM	CSc1ccc(-c2nc(C(=O)NC(=N)N)c(N)nc2N)cc1	–
1480 nM	N=C(N)NC(=O)c1nc(-c2ccc3c(c2)CCO3)c(N)nc1N	–
1260 nM	N=C(N)NC(=O)c1nc(-c2cccs2)c(N)nc1N	–

The next lines start with the compound.

SMILES	Ki [1]	also measured
N=C(N)NC(=O)c1nc(-c2cc3ccccc3o2)c(N)nc1N	–	IC50 (Trypsin): > 50000 nM; Activity (Rattus norvegicus [2]): Non-Toxic; Activity (Rattus norvegicus [3]): Non-Toxic; Activity (Rattus norvegicus [4]): Non-Toxic
COc1ncc(-c2nc(C(=O)NC(=N)N)c(N)nc2N)cn1	204 nM	Activity (Rattus norvegicus [3]): Non-Toxic; Activity (Rattus norvegicus [4]): Non-Toxic
COc1ccc2cc(-c3nc(C(=O)NC(=N)N)c(N)nc3N)oc2c1	439 nM	–
N=C(N)NC(=O)c1nc(-c2cc3cc(Br)ccc3o2)c(N)nc1N	3650 nM	–
COc1ccc(-c2nc(C(=O)NC(=N)N)c(N)nc2N)c(OC)n1	1210 nM	–
N=C(N)NC(=O)c1nc(-c2cc3cc(Cl)ccc3o2)c(N)nc1N	578 nM	–
N=C(N)NC(=O)c1nc(-c2cc3ccccc3s2)c(N)nc1N	1410 nM	–
COc1ccc2oc(-c3nc(C(=O)NC(=N)N)c(N)nc3N)cc2c1	287 nM	–
N#Cc1ccc2oc(-c3nc(C(=O)NC(=N)N)c(N)nc3N)cc2c1	904 nM	–
COc1ncc(-c2nc(C(=O)NC(=N)N)c(N)nc2N)c(OC)n1	1630 nM	–
N=C(N)NC(=O)c1nc(Cl)c(N)nc1N [AMILORIDE]	–	IC50 (Plasminogen): > 20000 nM; IC50 (Prothrombin): > 20000 nM; IC50 (Trypsin): > 50000 nM; IC50 (Coagulation factor X): > 50000 nM; IC50 (Coagulation factor XI): > 50000 nM; IC50 [5]: > 50000 nM; inhibition (HT-1080): inactive; IC50 (Plasma kallikrein): > 50000 nM; IC50 [6]: > 20000 nM
